Reference: ChEMBL document CHEMBL2375215, “Phenylpropiophenone derivatives as potential anticancer agents: synthesis, biological evaluation and quantitative structure-activity relationship study” (Eur J Med Chem, 2013)

What was measured:
HeLa [1] = experiment: Selectivity index, ratio of IC50 for human PBMC to IC50 for human HeLa cells
MCF7 [2] = experiment: Selectivity index, ratio of IC50 for human PBMC to IC50 for human MCF7 cells
K562 [3] = experiment: Cytotoxicity against human K562 cells assessed as decrease in cell survival after 72 hrs by MTT assay; assay type: functional, cell-based; settings: for IC50: K562, 72 h
[4] = Selectivity index, ratio of IC50 for human PBMC to IC50 for human Fem-X cells
PC-3 [5] = experiment: Selectivity index, ratio of IC50 for human PBMC to IC50 for human PC3 cells
PC-3 [6] = experiment: Selectivity index, ratio of IC50 for PHA-stimulated human PBMC to IC50 for human PC3 cells
HeLa [7] = experiment: Selectivity index, ratio of IC50 for PHA-stimulated human PBMC to IC50 for human HeLa cells
Aorta = experiment: Cytotoxicity against rat aorta at < 10 uM in presence of potassium channel and calcium channel blocker; assay type: tissue-based
MCF7 [8] = experiment: Selectivity index, ratio of IC50 for PHA-stimulated human PBMC to IC50 for human MCF7 cells
[9] = Selectivity index, ratio of IC50 for PHA-stimulated human PBMC to IC50 for human LS174 cells
K562 [10] = experiment: Selectivity index, ratio of IC50 for human PBMC to IC50 for human K562 cells
LS174 = experiment: (§1) Cytotoxicity against human LS174 cells assessed as decrease in cell survival after 72 hrs by MTT assay; assay type: functional, cell-based
[11] = as §1; assay type: functional, cell-based; settings: LS174, 72 h
MCF7 [12] = experiment: Cytotoxicity against human MCF7 cells assessed as decrease in cell survival after 72 hrs by MTT assay; assay type: functional, cell-based; settings: for IC50: MCF7, 72 h
[13] = Selectivity index, ratio of IC50 for PHA-stimulated human PBMC to IC50 for human Fem-X cells; assay type: functional
PBMC [14] = experiment: Cytotoxicity against PHA-stimulated human PBMC assessed as decrease in cell survival after 72 hrs by MTT assay; assay type: cell-based
[15] = (§2) Cytotoxicity against human Fem-X cells assessed as decrease in cell survival after 72 hrs by MTT assay; assay type: functional, cell-based
Fem-X = experiment: as §2; assay type: functional, cell-based
HeLa [16] = experiment: Cytotoxicity against human HeLa cells assessed as decrease in cell survival after 72 hrs by MTT assay; assay type: functional, cell-based
PBMC [17] = experiment: Cytotoxicity against human PBMC assessed as decrease in cell survival after 72 hrs by MTT assay; assay type: cell-based
K562 [18] = experiment: Selectivity index, ratio of IC50 for PHA-stimulated human PBMC to IC50 for human K562 cells
[19] = Selectivity index, ratio of IC50 for human PBMC to IC50 for human LS174 cells
PC-3 [20] = experiment: Cytotoxicity against human PC3 cells assessed as decrease in cell survival after 72 hrs by MTT assay; assay type: functional, cell-based; settings: for IC50: PC-3, 72 h

Question: What does the source list for `CCCNCC(O)COc1ccccc1C(=O)CCc1ccccc1Cl.Cl` (racemic)?
Answer: Ratio IC50 (HeLa [1]): 19.83; Ratio IC50 (MCF7 [2]): 2.95; Activity (K562 [3]): Dose-dependent effect; IC50 (K562 [3]; read-out: IC50): 6 µM; IC50 (K562 [3]; read-out: pIC50 (converted)): 6 µM; Ratio IC50 [4]: 12.14; Ratio IC50 (PC-3 [5]): 4.72; Ratio IC50 (PC-3 [6]): 4.2; Ratio IC50 (HeLa [7]): 17.63; Activity (Aorta): Not Active; Ratio IC50 (MCF7 [8]): 2.62; Ratio IC50 [9]: 4.72; Ratio IC50 (K562 [10]): 9.91; Activity (LS174): Dose-dependent effect; IC50 ([11]; read-out: IC50): 11.2 µM; IC50 ([11]; read-out: pIC50 (converted)): 11.2 µM; Activity (MCF7 [12]): Dose-dependent effect; IC50 (MCF7 [12]; read-out: IC50): 20.2 µM; IC50 (MCF7 [12]; read-out: pIC50 (converted)): 20.2 µM; Ratio IC50 [13]: 10.8; IC50 (PBMC [14]): 52.9 µM; IC50 ([15]; read-out: IC50): 4.9 µM; IC50 ([15]; read-out: pIC50 (converted)): 4.9 µM; Activity (Fem-X): Dose-dependent effect; Activity (HeLa [16]): Dose-dependent effect; IC50 (HeLa [16]; read-out: IC50): 3 µM; IC50 (HeLa [16]; read-out: pIC50 (converted)): 3 µM; IC50 (PBMC [17]): 59.5 µM; Ratio IC50 (K562 [18]): 8.82; Ratio IC50 [19]: 5.31; Activity (PC-3 [20]): Dose-dependent effect; IC50 (PC-3 [20]; read-out: IC50): 12.6 µM; IC50 (PC-3 [20]; read-out: pIC50 (converted)): 12.6 µM

Question: Which “Ratio IC50” value (HeLa [1]) does the source give for `CCCNCC(O)COc1ccccc1C(=O)CCc1ccc(C)cc1.Cl` (racemic) here?
Answer: 2.24

Question: And the “Ratio IC50” value (MCF7 [2])?
Answer: 1.54

Question: What about the Activity (K562 [3]) of the same compound?
Answer: Dose-dependent effect

Question: And the IC50 (K562 [3]; read-out: IC50)?
Answer: 14.7 µM

Question: What about the IC50 (K562 [3]; read-out: pIC50 (converted)) of the same compound?
Answer: 14.7 µM

Question: And the “Ratio IC50” value [4]?
Answer: 3.83

Question: What about the “Ratio IC50” value (PC-3 [5]) of the same compound?
Answer: 1.97

Question: And the “Ratio IC50” value (PC-3 [6])?
Answer: 1.68

Question: And the “Ratio IC50” value (HeLa [7])?
Answer: 1.91

Question: What about the “Ratio IC50” value (MCF7 [8]) of the same compound?
Answer: 1.31

Question: What about the “Ratio IC50” value [9] of the same compound?
Answer: 1.99

Question: What about the “Ratio IC50” value (K562 [10]) of the same compound?
Answer: 3.31

Question: And the Activity (LS174)?
Answer: Dose-dependent effect

Question: And the IC50 ([11]; read-out: IC50)?
Answer: 20.8 µM

Question: What about the IC50 ([11]; read-out: pIC50 (converted)) of the same compound?
Answer: 20.8 µM

Question: And the Activity (MCF7 [12])?
Answer: Dose-dependent effect

Question: And the IC50 (MCF7 [12]; read-out: IC50)?
Answer: 31.7 µM

Question: And the IC50 (MCF7 [12]; read-out: pIC50 (converted))?
Answer: 31.7 µM

Question: What about the “Ratio IC50” value [13] of the same compound?
Answer: 3.26

Question: What about the IC50 (PBMC [14]) of the same compound?
Answer: 41.4 µM

Question: What about the IC50 ([15]; read-out: IC50) of the same compound?
Answer: 12.7 µM

Question: And the IC50 ([15]; read-out: pIC50 (converted))?
Answer: 12.7 µM

Question: What about the Activity (Fem-X) of the same compound?
Answer: Dose-dependent effect

Question: What about the Activity (HeLa [16]) of the same compound?
Answer: Dose-dependent effect

Question: And the IC50 (HeLa [16]; read-out: IC50)?
Answer: 21.7 µM

Question: And the IC50 (HeLa [16]; read-out: pIC50 (converted))?
Answer: 21.7 µM

Question: And the IC50 (PBMC [17])?
Answer: 48.7 µM

Question: And the “Ratio IC50” value (K562 [18])?
Answer: 2.82

Question: And the “Ratio IC50” value [19]?
Answer: 2.34

Question: And the Activity (PC-3 [20])?
Answer: Dose-dependent effect

Question: And the IC50 (PC-3 [20]; read-out: IC50)?
Answer: 24.7 µM

Question: What about the IC50 (PC-3 [20]; read-out: pIC50 (converted)) of the same compound?
Answer: 24.7 µM

Question: Which “Ratio IC50” value (HeLa [1]) does the source give for `O=C(/C=C/c1ccccc1C(F)(F)F)c1ccccc1O` here?
Answer: 2.31

Question: And the “Ratio IC50” value (MCF7 [2])?
Answer: 2.48

Question: What about the Activity (K562 [3]) of the same compound?
Answer: Dose-dependent effect

Question: What about the IC50 (K562 [3]; read-out: IC50) of the same compound?
Answer: 9.2 µM

Question: What about the IC50 (K562 [3]; read-out: pIC50 (converted)) of the same compound?
Answer: 9.2 µM

Question: What about the “Ratio IC50” value [4] of the same compound?
Answer: 4.1

Question: And the “Ratio IC50” value (PC-3 [5])?
Answer: 1.25

Question: What about the “Ratio IC50” value (PC-3 [6]) of the same compound?
Answer: 1.04

Question: And the “Ratio IC50” value (HeLa [7])?
Answer: 1.92

Question: And the “Ratio IC50” value (MCF7 [8])?
Answer: 2.07

Question: And the “Ratio IC50” value [9]?
Answer: 1.32

Question: What about the “Ratio IC50” value (K562 [10]) of the same compound?
Answer: 4.55

Question: And the Activity (LS174)?
Answer: Dose-dependent effect

Question: And the IC50 ([11]; read-out: IC50)?
Answer: 26.4 µM

Question: What about the IC50 ([11]; read-out: pIC50 (converted)) of the same compound?
Answer: 26.4 µM

Question: And the Activity (MCF7 [12])?
Answer: Dose-dependent effect

Question: And the IC50 (MCF7 [12]; read-out: IC50)?
Answer: 16.9 µM

Question: And the IC50 (MCF7 [12]; read-out: pIC50 (converted))?
Answer: 16.9 µM

Question: And the “Ratio IC50” value [13]?
Answer: 3.42

Question: And the IC50 (PBMC [14])?
Answer: 25.2 µM

Question: What about the IC50 ([15]; read-out: IC50) of the same compound?
Answer: 10.2 µM

Question: What about the IC50 ([15]; read-out: pIC50 (converted)) of the same compound?
Answer: 10.2 µM

Question: And the Activity (Fem-X)?
Answer: Dose-dependent effect

Question: What about the Activity (HeLa [16]) of the same compound?
Answer: Dose-dependent effect

Question: And the IC50 (HeLa [16]; read-out: IC50)?
Answer: 18.1 µM

Question: And the IC50 (HeLa [16]; read-out: pIC50 (converted))?
Answer: 18.1 µM

Question: And the IC50 (PBMC [17])?
Answer: 41.9 µM

Question: What about the “Ratio IC50” value (K562 [18]) of the same compound?
Answer: 3.79

Question: And the “Ratio IC50” value [19]?
Answer: 1.59

Question: And the Activity (PC-3 [20])?
Answer: Dose-dependent effect

Question: And the IC50 (PC-3 [20]; read-out: IC50)?
Answer: 33.5 µM

Question: What about the IC50 (PC-3 [20]; read-out: pIC50 (converted)) of the same compound?
Answer: 33.5 µM
